Marks after values point to notes of the source that are not given here.
Key:
[1] = system: saponin-induced vascular hyperplasia; test: Saponin-induced vascular hyperplasia model (carotid artery endothelial denudation); assay type: in vivo, rat; conditions: for effect on saponin-induced smooth muscle cell hyperplasia (histology, in words): rat carotid artery 14 days after saponin denudation, 35 mg/kg/day days 1 to 14 by miniosmotic pump, 35 mg/kg/day
Experimental: In order to induce vascular hyperplasia two procedures were used. In the first procedure, male Fisher 344 rats (18→30 weeks of age) were anaesthetised and approximately a 1 cm length of one of the carotid arteries exteriorised by dissection. The 1 cm arterial segment was clamped at both ends with padded artery clamps. A small volume of saponin solution (0.5 mg/ml in PBS) was injected, via a 30 gauge needle, into the arterial segment, left for 2 min and then withdrawn by suction. The 1 cm arterial section was ligated (5/0 silk) on each side of the needle hole and the arterial clamps removed, the artery reinteriorised and the wound sutured. On the following day animals were divided into control and treatment groups. The treatment group received the sulfated oligosaccharide, sulfated mannopentaose phosphate (PI-88) at a dose of 35 mg/kg/day for the next 14 days delivered via subcutaneously implanted miniosmotic pumps (Alzet 2ML2). Control animals were given the miniosmotic pumps containing saline. After 2 weeks the animals were anaesthetised (pentobarbitone), perfused with 10% buffered formalin for 20 minutes, euthanised (Pentobarbitone) and the denuded arterial segments were removed and processed for histological examination. The degree of intimal hyperplasia was determined using digital image analysis.
The saponin-induced vascular hyperplasia model used in this study is a new procedure which has several important features which should be highlighted. First, brief exposure to the detergent saponin is used to denude the arterial wall of endothelial cells. Such a procedure is similar to the endothelial denudation resulting from balloon angioplasty. Second, massive vascular smooth muscle hyperplasia is observed in the saponin-treated carotid artery 14 days after saponin exposure (FIG. 1) when compared with the carotid artery from an untreated control animal (FIG. 2). In fact, almost complete occlusion of the blood vessel is observed in the saponin-treated vessel (FIG. 1). Third, based on control experiments, the saponin-induced vascular hyperplasia model represents an excellent system for screening of drugs which inhibit vascular hyperplasia, a process which occurs in atherosclerotic plaques and in angioplasty-associated restenosis.

[2] = system: vascular intimal hyperplasia; test: Balloon dilation model of vascular intimal hyperplasia (carotid artery); assay type: in vivo, rat
Source text: In the second procedure, a traditional balloon dilation model, based essentially on the method described by Clowes et al.^8 was used. Thirteen male Wistar rats (16-20 weeks of age) were anaesthetised (avertin) and the left common carotid artery exteriorised via a ventral midline incision. A padded vascular clamp was applied to the most caudal end of the exteriorised artery. Following arteriotomy a 2 F Fogarty balloon catheter was inserted into the carotid artery, the vascular clamp removed and the catheter advanced 1-1.5 cm in a caudal direction. The balloon was inflated using a 0.12 cc of air and the catheter was withdrawn to the point of arterial insertion. The balloon was then deflated and this procedure was repeated twice more. On the third withdrawal the balloon was deflated, the catheter removed from the artery and simultaneously a padded vascular clamp applied immediately caudal to the arteriotomy but leaving room for the subsequent application of a ligature (5/0 silk). […]
In the second procedure employing the balloon dilation model, the degree of vascular intimal hyperplasia was calculated as a percentage of the total area of the vessel cross-section. Specifically, the percentage of hyperplasia was determined to be the area of the tunica intima divided by the cross-sectional area of the artery.

sulfated mannopentaose phosphate [PI-88]
Arterial Wall Thickness ([1]; male Fisher 344 rats, saponin denudation of carotid artery, 35 mg/kg/day for 14 days via subcutaneous miniosmotic pump, mean ± SEM, P = 0.08 vs control): 266.7 ± 27.7^b μm
Arterial Wall Thickness % Control ([1]; male Fisher 344 rats, saponin denudation, 35 mg/kg/day for 14 days via miniosmotic pump, saline control = 100, mean ± SEM, P = 0.08): 66.4 ± 6.9^b %
effect on saponin-induced smooth muscle cell hyperplasia (histology, in words) [1]: reduction in the saponin-induced vascular hyperplasia
effect on saponin-induced smooth muscle cell hyperplasia (histology, in words) ([1]; listed as sulfated mannopentaose phosphate): substantial reduction in smooth muscle cell hyperplasia
inhibition of vascular hyperplasia compared with untreated control animals ([1]; saponin model, 35 mg/kg/day via miniosmotic pumps, histological examination of carotid arteries, P=0.08): 34%
effect on vascular intimal hyperplasia (in words) ([2]; balloon dilation model, 35 mg/kg/day via miniosmotic pumps): statistically significant (P=0.0008) reduction in vascular intimal hyperplasia
Percentage of neointima ([2]; male Wistar rats, balloon catheter dilation of left common carotid artery, 35 mg/kg/day for two weeks via subcutaneous miniosmotic pump, area of tunica intima divided by cross-sectional area of artery, saline control 57.66): 36.02^a %
